Assay results published in a melting point compilation (Tetko et al.; mined from patent text by program, amines drawn as free bases though some values may be those of a salt).

melting point [°C] | Compound
45 to 46 | Cc1cc(C(C)(C)CBr)c(C)nn1
194 to 195 | CCNc1ncc2ccc(=O)n(C)c2n1
154 to 156 | COc1ccc(-c2c(-c3cc(OC)c(OC)c(OC)c3)ncn2-c2cc(OC)c(OC)c(OC)c2)cc1O
144 | CC(C)(C)OC(=O)NC(C(=O)O)c1c[nH]c2ccccc12 (configuration not stated)
142 to 143 | CN1C(=O)OC(C)(C)c2cc(-c3cccc(Br)c3)ccc21
221 | O=c1cc(-c2ccccc2)oc2c(CN3CCC(O)CC3)c(O)c(O)c(O)c12
125 to 127 | O=c1c2ccccc2cc(Cl)n1-c1ccc(Cl)cc1
83 to 83.5 | CCCCC(C)(C)C=CC(OC(C)=O)C1C(C)CC2OC(=O)CC21 (configuration not stated)
260 | Cc1ccc(N2C(=O)C(O)=C(C(=O)c3ccc(CC(C)C)cc3)C2c2ccc(OC(F)(F)F)cc2)nn1 (configuration not stated)
89 to 90 | O=C1C2C3C=CC(C3)C2C(=O)N1OS(=O)(=O)C(F)(F)F (configuration not stated)
174 to 175 | CC(=O)N(O)CCOc1ccc(-c2ccc(C#N)cc2)cc1
64 to 66 | CCCCCCCCCCCCOC(=O)c1cc(N=NN(CCO)c2ccc(C)cc2)ccc1[N+](=O)[O-]
235 to 236 | CCC(=O)Oc1c(OC)cc(C=CC(=O)Nc2cnc3c(C)cc(C)cc3c2-c2ccccc2Cl)cc1OC
195 to 198 | CCN(CC)C(=O)Nc1ccc(S(=O)(=O)N2C(=O)C(NCCCCCNC(C)=O)(c3ccccc3Cl)c3cc(Cl)ccc32)cc1 (configuration not stated)
292 to 295 | Oc1c2c(nc3ccc(C4CCCCC4)cc13)CCCC2
349 to 351 | N#Cc1ccc2nc3sc(-c4ccccc4)cc3c(=O)n2c1
252 to 254 | Nc1ccc(F)c(C(=O)NCC(=O)O)c1
98 to 99 | CC(C)CCCOc1c(-c2ccc(S(C)(=O)=O)cc2)cnn(-c2ccc(F)c(F)c2)c1=O
139 to 141 | COc1ccc(C(=O)c2ccc(F)cc2F)c(Cl)c1Cl
197 to 200 | CC(=O)Oc1c(N2CCCC2)c(=O)n(-c2ccccc2)c2ncccc12
204 to 206 | CCCNC(=O)Cc1c(-c2ccc(C)s2)nc2sc3ccccc3n12
233 | COc1cccc2sc(C(=O)Nc3nnn[nH]3)c(OC(C)C)c12
147 to 149 | COc1ccc2c(c1)CCC1CCNC(=O)C(CCNC(C)C)=C21 (configuration not stated)
147 to 148 | N#Cc1cnn(-c2ccc(CBr)cc2)n1
153 to 156 | COc1ccc(COC(=O)NC(C(=O)O)c2cccs2)cc1 (configuration not stated)

melting point [°C] | Compound
151 to 153 | Cc1cn(-c2ccc(N3C[C@H](CO)OC3=O)cc2F)cn1
248 | CCNc1n[nH]c2ccc(C3C(C#N)=C(C)NC(C)=C3C#N)cc12
> 250 | NC(=O)c1cc2c(Oc3ccc(N)cc3)cncc2s1
151 to 153 | CCCCCC(=O)Nc1cccc2c1C1(COc3cc4c(cc31)OCCO4)C(=O)N2C (configuration not stated)
104 | COC(=O)CC[C@H](NC(=O)c1ccc(C(CO)CCCc2c(N)nc(N)nc2O)cc1)C(=O)OC (some centres not stated)
290 to 292 | O=c1cc(-c2ccncn2)nc2n1Cc1ccccc1N2
70 | CSc1ccc(CCCOCCCCCCNCC(O)c2ccc3c(n2)COC(c2ccccc2)O3)cc1 (configuration not stated)
200 to 201 | CCOC(=O)c1cc2cc(NC(=O)C[C@H]3O[C@H](c4cccc(OC)c4OC)c4cc(Cl)ccc4N(CC(C)(C)COC(C)=O)C3=O)ccc2[nH]1
146 to 148 | COCc1c[nH]c(-c2ccc(OCc3ccccc3)cc2)n1
187 to 188 | CCNC(=O)Cc1ccc(C(=O)c2ccc(Cl)cc2)n1C
> 275 | CS(=O)(=O)c1ccc(-c2cc(-c3nc4ccccc4c(=O)n3-c3ccccc3Cl)sc2N2CCOCC2)cc1
289 to 291 | COC(=O)c1cc(=O)c2cc(C(F)(F)F)ccc2[nH]1
104 to 105 | COc1cc(C(=O)C#CCO)cc(OC)c1OC
268 to 272 | Cc1ccc(Nc2nc(-c3cccc(C#N)c3)cs2)nc1
168 to 170 | N#Cc1cc(C#N)cc(Oc2c(C3CC3)n[nH]c2C2CC2)c1
60 to 62 | ClCc1ccc(OCCCCc2ccccc2)cc1
156 to 158 | CN(c1cccc2cc(C3=NCC(CC(C)(C)O)S3)[nH]c12)S(=O)(=O)c1cccs1 (configuration not stated)
159 to 160 | CN(C(=O)c1ccc(N)cc1)c1ccccc1N
117 to 118 | CC1=C(c2ccccc2)C(=O)N(C(C)(C)c2cccc(Cl)c2)CC1
260 to 262 | COc1ccc(N2CCOCC2)c2sc(-c3nc4ccc(N5CCOCC5)nc4[nH]3)nc12
153 | CC(COc1ccc2ccc(Oc3c(F)cc(C(F)(F)F)cc3Cl)cc2c1)=NO
143 to 144 | COc1ccc(C2CNC(=O)C2)cc1OCC(O)CN1CCN(c2ccccc2)CC1 (configuration not stated)
214 to 221 | CCc1ccc(CCOc2ccc(CC(N)C(=O)O)cc2)nc1 (configuration not stated)
174 to 176 | O=CNNc1ccc(NC(=S)N2CCCCC2)cc1
91 to 92 | Clc1ccc(Cn2cc(C3(Cn4ccnc4)CCCC3)c3ccccc32)cc1

Continued, molecule first:

Compound | melting point [°C]
CCCCCCCCOc1ccc2c(c1)C(=O)c1cc3ccccc3cc1C2=O | 127 to 129
Cc1c(-c2ccc(O)cc2)n(Cc2ccc(OCCN3CCCCC3C)cc2)c2ccc(O)cc12 (configuration not stated) | 121 to 123
C[C@@H]1CN(C(=O)OC(C)(C)C)C[C@H]2Cc3cc(Br)c(CO)nc3N21 | 110 to 112
Cc1nc2cc(N)ccc2c(=O)n1C1CCC(=O)NC1=O (configuration not stated) | 305 to 307
CC(C)NC(=O)n1nc(N(C)C)n(C)c1=O | 36 to 38
O=C(O)C1CCCN1C(=O)COc1ccccc1 (configuration not stated) | 109 to 111
O=C(O)c1cc(=O)c2cc(F)ccc2o1 | 261 to 262
C=CCOc1ccc(C=CC(=O)c2c(OC)cc(OC)cc2OC(=O)CC)cc1 | 83.5
c1ccc(CSc2ccccc2C2=NOCCO2)cc1 | 73 to 77
CCOC(=O)CC(=O)NC(=O)N1CC1C#N (configuration not stated) | 121 to 123
Clc1ccc2c3c(cccc13)C(NCCCn1ccnc1)=N2 | 177 to 178
COCCOCOc1ccc2cc(C(=O)O)ccc2c1 | 110
O=C1NN=C(c2ccc3[nH]c(-c4ccncc4)cc3c2)CO1 | 322 to 325
Cc1cc(C)nc(SCC(CS(=O)(=O)c2ccc(-c3ccc(Cl)cc3)cc2)C(=O)O)n1 (configuration not stated) | 170 to 172
COc1ccc(CCCC(C)=O)cc1S(N)(=O)=O | 115 to 116
CCCCc1c(C(=O)OCC)cc(O)c2ccccc12 | 117 to 120
CCn1cc(C(=O)NCCc2ccncc2)c(=O)c2cc(F)cc(C)c21 | 243 to 245
CC(=O)Nc1ccc(S(N)(=O)=O)cc1[N+](=O)[O-] | 182 to 183
CC1(C)C(C(=O)O)N2C(=O)C(NC(=O)Cc3ccccc3)C2S1=O (configuration not stated) | 143 to 145
CCCCOc1cc(/C=C(\OCC)C(=O)O)ccc1OCCc1ccc(OS(C)(=O)=O)cc1OC | 112
CC(=O)N1CCC(C(=O)N(CCCN2CCC(Cc3ccccc3)CC2)c2ccc(C)c(Cl)c2)CC1 | 96 to 99
CC(C)(C)c1cc2c(c(C(C)(C)C)c1)OC(=O)C2c1ccc(C(F)(F)F)cc1 (configuration not stated) | 127 to 128
O=C1c2ccc(Cl)cc2OCN1CCO[N+](=O)[O-] | 86 to 88
O=C(N[C@H]1CCN(CCc2ccc(F)cc2)C1)C(c1cccs1)c1cccs1 | 96 to 98
Cn1c(NC(=O)OCc2ccccc2)c(-c2ccccc2)c2cc(Cl)ccc21 | 164
CN1CCC(N(CCN2CCCC2)S(=O)(=O)c2ccc(Nc3nccc(Nc4ccc(F)cc4)n3)cc2)CC1 | 250

Compound | melting point [°C]
CC(=O)OC1=CC2=CCC3C(C(F)CC4(C)C(=O)CCC34)C2CC1 (configuration not stated) | 175 to 177
Cc1cc(CCCCCOc2ccc(-c3cnco3)cc2)on1 | 91 to 93
COc1cc2c(cc1Nc1ncc(Cl)c(Nc3cc(C(N)=O)ccc3OC)n1)CCN(CCS(C)(=O)=O)CC2 | 232 to 243
O=C1Nc2ccccc2N(C(=O)CN2CCCCC2CN2CCCC2)c2ccccc21 (configuration not stated) | 199 to 201
O=C1Nc2cc(NC(=O)c3c[nH]cc(-c4ccc(F)cc4)c3=O)c(F)cc2/C1=C/c1ccc[nH]1 | > 300
CCC(=C(c1ccccc1)c1ccc(C=CC(=O)OC)cc1)c1ccccc1 | 133 to 135
Cc1nnc2n1-c1ccccc1C(c1ccccc1Cl)OC2C (configuration not stated) | 176 to 178
NC(=O)c1cc([N+](=O)[O-])c(N2CC2)c([N+](=O)[O-])c1 | 228 to 231
c1ccc(NCC2CCNCC2)cc1 | 60 to 61
CC(C)(Br)c1ccc2occ(C#N)c(=O)c2c1 | 115 to 117
O=C1Cc2cc(F)ccc2N1 | 131 to 133
CC(=O)OCC1OC(n2cnc3c(N)ncnc32)CC1O (configuration not stated) | 150 to 152
Cc1ccc(OC(=O)CCC(=O)OOC(C)(C)C)cc1 | 72 to 77
O=C1NCCc2oc3ccccc3c21 | 158 to 161
CC(C)(C)OC(=O)Cc1c(Cl)nc(N)nc1C#N | 107 to 109
Cc1cc(CCCOc2c(C)cc(-c3noc(=O)[nH]3)cc2C)on1 | 194 to 195
O=C(c1ccccc1)c1cnc2c(c1)CCC(c1ccc(Cl)c(Cl)c1)O2 (configuration not stated) | 155 to 158
Nc1ccccc1NC(=O)c1ccc(CNC(=O)COc2cccnc2)cc1 | 154 to 155
CCOC(=O)NC(=O)c1c(Cl)ccc2c(C(F)(F)F)c(OC)ccc12 | 169 to 171
CC(C)CCCC(C)C1CCC2C3CC=C4CC(O)CC(O)C4(C)C3CCC12C (configuration not stated) | 158 to 161
CSc1nc(CO)c(CO)n1-c1ccccc1 | 137 to 138
COc1cc2c(cc1OC)CN(CCCCc1ccc(NC(=O)c3ccc4ccccc4c3)cc1)CC2 | 165 to 167
NCCOc1ccc(/C(=C(\c2ccccc2)C(F)(F)F)c2ccccc2)cc1 | 71 to 76
CC12CCC3C(CC=C4CCCCC43C)C1CC(O)C2=O (configuration not stated) | 168 to 172
Nc1cc(F)cc2c(Cl)ccnc12 | 98 to 103
COc1cc(C(C)(C)C)c2c(c1)C(C)(C)C(=O)O2 | 63.5 to 64.5
